Patent US20240366598A1, “GLUCOSE-DEPENDENT INSULINOTROPIC POLYPEPTIDE RECEPTOR ANTAGONISTS AND USES THEREOF” (Pfizer Inc., priority 2023, published 2024)

Target: T1, human Glucose-dependent Insulinotropic Polypeptide Receptor (hGIPR) (Homo sapiens, UniProt P48546)
T1 sequence (P48546 22-466): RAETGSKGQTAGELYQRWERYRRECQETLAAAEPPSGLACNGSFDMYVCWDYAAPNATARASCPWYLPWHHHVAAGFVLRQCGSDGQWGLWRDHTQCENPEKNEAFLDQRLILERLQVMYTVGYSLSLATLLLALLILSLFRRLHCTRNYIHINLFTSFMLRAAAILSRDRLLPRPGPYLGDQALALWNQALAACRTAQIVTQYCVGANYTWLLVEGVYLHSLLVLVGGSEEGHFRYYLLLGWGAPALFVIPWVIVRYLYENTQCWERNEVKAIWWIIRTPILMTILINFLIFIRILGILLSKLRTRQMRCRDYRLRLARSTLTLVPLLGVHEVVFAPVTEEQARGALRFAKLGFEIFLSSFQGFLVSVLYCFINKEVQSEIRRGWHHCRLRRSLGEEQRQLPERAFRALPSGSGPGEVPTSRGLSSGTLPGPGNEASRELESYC
Assay: Functional in vitro GIPR antagonist potency assay (cAMP HTRF, CHO-K1 cells stably expressing hGIPR, hGIP stimulation at about EC80)
Assay type: cell-based
Settings: geometric mean, hGIP at estimated EC80, examples marked ^2: overall geometric mean of multiple forms (including salts) tested
Procedure, shortened: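 CHO-K1 cells expressing hGIPR (2,000 per well) in HBSS/HEPES/0.1% BSA with 200 μM IBMX were preincubated 2 h at 37 °C with an 11-point compound series (0.5% DMSO). hGIP at about EC80 was then added for 30 min, and cAMP was read by HTRF (665/620 nm). Data were normalized between hGIP alone and full antagonism by a reference antagonist at 80 μM.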

Row | Structure (SMILES) | IC50 [nM]
1 | CC(C)c1ccc(NC(=O)N2CCC[C@@H]2C(=O)Nc2ccc(-c3cc(F)c(O)c(F)c3)cc2)cc1 [Example 99, (2R)-N^2-(3′,5′-difluoro-4′-hydroxy[1,1′-biphenyl]-4-yl)-N^1-[4-(propan-2-yl)phenyl]pyrrolidine-1,2-dicarboxamide] | 18
2 | CC(C)c1ccc(NC(=O)N2CCC[C@@H]2C(=O)Nc2ccc(-c3ccc(O)c(C#N)c3)cc2)cc1 [Example 100, (2R)-N^2-(3′-cyano-4′-hydroxy[1,1′-biphenyl]-4-yl)-N^1-[4-(propan-2-yl)phenyl]pyrrolidine-1,2-dicarboxamide] | 27
3 | O=C(O)c1ccc(-c2ccc(NC(=O)[C@H]3CCCN3C(=O)Nc3cnc(C(F)(F)F)nc3)cc2)cc1 [Example 101, 4′-[(1-{[2-(trifluoromethyl)pyrimidin-5-yl]carbamoyl}-D-prolyl)amino][1,1′-biphenyl]-4-carboxylic acid] | 92
4 | Cc1nc(NC(=O)N2CCC[C@@H]2C(=O)Nc2ccc(-c3ccc(C(=O)O)cc3)cc2)ccc1C(C)C [Example 102, 4′-[(1-{[6-methyl-5-(propan-2-yl)pyridin-2-yl]carbamoyl}-D-prolyl)amino][1,1′-biphenyl]-4-carboxylic acid] | 690
5 | O=C(O)c1ccc(-c2ccc(NC(=O)[C@H]3CCCN3C(=O)Nc3ccc(Cl)cc3Cl)cc2)cc1 [Example 103, 4′-({1-[(2,4-dichlorophenyl)carbamoyl]-D-prolyl}amino)[1,1′-biphenyl]-4-carboxylic acid] | 29
6 | N#Cc1cc(CNC(=O)N2CCC[C@@H]2C(=O)Nc2ccc(-c3ccc(C(=O)O)cc3)cc2)ccc1Cl [Example 107, 4′-[(1-{[(4-chloro-3-cyanophenyl)methyl]carbamoyl}-D-prolyl)amino][1,1′-biphenyl]-4-carboxylic acid] | 720
7 | O=C(O)c1ccc(-c2ccc(NC(=O)[C@H]3CCCN3C(=O)NCc3cnc(C(F)(F)F)nc3)cc2)cc1 [Example 108, 4′-{[1-({[2-(trifluoromethyl)pyrimidin-5-yl]methyl}carbamoyl)-D-prolyl]amino}[1,1′-biphenyl]-4-carboxylic acid] | 260
8 | CC(C)c1ncc(NC(=O)N2CCC[C@@H]2C(=O)Nc2ccc(-c3ccc(C(=O)O)cc3)cc2)cn1 [Example 112, 4′-[(1-{[2-(propan-2-yl)pyrimidin-5-yl]carbamoyl}-D-prolyl)amino][1,1′-biphenyl]-4-carboxylic acid] | 840
9 | O=C(O)c1ccc(-c2ccc(NC(=O)[C@H]3CCCN3C(=O)NCc3cc(Cl)cc(Cl)c3)cc2)cc1 [Example 113, 4′-[(1-{[(3,5-dichlorophenyl)methyl]carbamoyl}-D-prolyl)amino][1,1′-biphenyl]-4-carboxylic acid] | 21
10 | O=C(O)c1ccc(-c2ccc(NC(=O)[C@H]3CCCN3C(=O)Nc3ccc(C4CCCCC4)cc3)cc2)cc1 [Example 114, 4′-({1-[(4-cyclohexylphenyl)carbamoyl]-D-prolyl}amino)[1,1′-biphenyl]-4-carboxylic acid] | 40
11 | O=C(O)c1ccc(-c2ccc(NC(=O)[C@H]3CCCN3C(=O)NCc3ccc(Cl)c(Cl)c3)cc2)cc1 [Example 116, 4′-[(1-{[(3,4-dichlorophenyl)methyl]carbamoyl}-D-prolyl)amino][1,1′-biphenyl]-4-carboxylic acid] | 12
12 | CC(C)c1ccc(NC(=O)N2CCC[C@@H]2C(=O)Nc2ccc(-c3ccc(C(=O)O)cc3)cc2)c(F)c1 [Example 117, 4′-[(1-{[2-fluoro-4-(propan-2-yl)phenyl]carbamoyl}-D-prolyl)amino][1,1′-biphenyl]-4-carboxylic acid] | 26
13 | CCc1ccc(NC(=O)N2CCC[C@@H]2C(=O)Nc2ccc(-c3ccc(C(=O)O)cc3)cc2)cc1 [Example 118, 4′-({1-[(4-ethylphenyl)carbamoyl]-D-prolyl}amino)[1,1′-biphenyl]-4-carboxylic acid] | 15
14 | CC(C)(C)c1ccc(NC(=O)N2CCC[C@@H]2C(=O)Nc2ccc(-c3ccc(C(=O)O)cc3)cc2)cc1 [Example 119, 4′-({1-[(4-tert-butylphenyl)carbamoyl]-D-prolyl}amino)[1,1′-biphenyl]-4-carboxylic acid] | 24
15 | COc1nc(C(=O)O)ccc1-c1ccc(NC(=O)[C@H]2CCCN2C(=O)Nc2ccc(C(C)C)cc2)cc1 [Example 120, 6-methoxy-5-{4-[(1-{[4-(propan-2-yl)phenyl]carbamoyl}-D-prolyl)amino]phenyl}pyridine-2-carboxylic acid] | 26
16 | CC(C)c1ccc(NC(=O)N2CCC[C@@H]2C(=O)Nc2cnc(-c3ccc(C(=O)O)cc3)cn2)cc1 [Example 121, 4-{5-[(1-{[4-(propan-2-yl)phenyl]carbamoyl}-D-prolyl)amino]pyrazin-2-yl}benzoic acid] | 27
17 | O=C(O)c1ccc(-c2ccc(NC(=O)[C@H]3CCCN3C(=O)Nc3ccc(C4CC4)cc3)cc2)cn1 [Example 122, 5-[4-({1-[(4-cyclopropylphenyl)carbamoyl]-D-prolyl}amino)phenyl]pyridine-2-carboxylic acid] | 99
18 | O=C(O)c1ccc(-c2ccc(NC(=O)[C@H]3CCCN3C(=O)NCc3ccc(F)c(Cl)c3)cc2)cc1 [Example 124, 4′-[(1-{[(3-chloro-4-fluorophenyl)methyl]carbamoyl}-D-prolyl)amino][1,1′-biphenyl]-4-carboxylic acid] | 74
19 | CC(C)(C)c1ccc(CNC(=O)N2CCC[C@@H]2C(=O)Nc2ccc(-c3ccc(C(=O)O)cc3)cc2)cc1 [Example 125, 4′-[(1-{[(4-tert-butylphenyl)methyl]carbamoyl}-D-prolyl)amino][1,1′-biphenyl]-4-carboxylic acid] | 19
20 | CC(C)c1ccc(CNC(=O)N2CCC[C@@H]2C(=O)Nc2ccc(-c3ccc(C(=O)O)cc3)cc2)c(F)c1 [Example 127, 4′-{[1-({[2-fluoro-4-(propan-2-yl)phenyl]methyl}carbamoyl)-D-prolyl]amino}[1,1′-biphenyl]-4-carboxylic acid] | 69

Stronger by IC50, values ahead:

Row | IC50 [nM] | Structure (SMILES)
21 | 11 | CCC(C)c1ccc(NC(=O)N2CCC[C@@H]2C(=O)Nc2ccc(-c3ccc(C(=O)O)cc3)cc2)cc1 (stereo partly drawn) [Example 111, 4′-[(1-{[4-(butan-2-yl)phenyl]carbamoyl}-D-prolyl)amino][1,1′-biphenyl]-4-carboxylic acid]
22 | 11 | CC(C)c1ccc(NC(=O)N2C[C@H]3C[C@H]3[C@@H]2C(=O)Nc2ccc(-c3ccc(C(=O)O)cc3)cn2)cc1 [Example 123, 4-(6-{[(1R,2R,5S)-3-{[4-(propan-2-yl)phenyl]carbamoyl}-3-azabicyclo[3.1.0]hexane-2-carbonyl]amino}pyridin-3-yl)benzoic acid]
23 | 9.3 | O=C(O)c1ccc(-c2ccc(NC(=O)[C@H]3CCCN3C(=O)Nc3cc(F)c(C(F)(F)F)c(F)c3)cc2)cc1 [Example 128, 4′-[(1-{[3,5-difluoro-4-(trifluoromethyl)phenyl]carbamoyl}-D-prolyl)amino][1,1′-biphenyl]-4-carboxylic acid]
24 | 8.8 | CC(C)c1ccc(NC(=O)N2C[C@@H]3C[C@@H]3[C@@H]2C(=O)Nc2ccc(-c3ccc(C(=O)O)cc3)cc2)cc1 [Example 105, 4′-{[(1S,2R,5R)-3-{[4-(propan-2-yl)phenyl]carbamoyl}-3-azabicyclo[3.1.0]hexane-2-carbonyl]amino}[1,1′-biphenyl]-4-carboxylic acid]
25 | 6.6 | O=C(O)c1ccc(-c2ccc(NC(=O)[C@H]3CCCN3C(=O)NCc3ccc(C(F)(F)F)c(F)c3)cc2)cc1 [Example 126, 4′-{[1-({[3-fluoro-4-(trifluoromethyl)phenyl]methyl}carbamoyl)-D-prolyl]amino}[1,1′-biphenyl]-4-carboxylic acid]
26 | 5.1 | CC(C)c1ccc(CNC(=O)N2CCC[C@@H]2C(=O)Nc2ccc(-c3ccc(C(=O)O)cc3)cc2)cc1 [Example 109, 4′-{[1-{{[4-(propan-2-yl)phenyl]methyl}carbamoyl)-D-prolyl]amino}[1,1′-biphenyl]-4-carboxylic acid]
27 | 4.8 | O=C(O)c1ccc(-c2ccc(NC(=O)[C@H]3CCCN3C(=O)Nc3ccc(C4CCCC4)cc3)cc2)cc1 [Example 115, 4′-({1-[(4-cyclopentylphenyl)carbamoyl]-D-prolyl}amino)[1,1′-biphenyl]-4-carboxylic acid]
28 | 3.7 | O=C(O)c1ccc(-c2ccc(NC(=O)[C@H]3CCCN3C(=O)Nc3ccc(Cl)c(C(F)(F)F)c3)cc2)cc1 [Example 110, 4′-[(1-{[4-chloro-3-(trifluoromethyl)phenyl]carbamoyl}-D-prolyl)amino][1,1′-biphenyl]-4-carboxylic acid]
29 | 3 | Cc1cc(NC(=O)N2CCC[C@@H]2C(=O)Nc2ccc(-c3ccc(C(=O)O)cc3)cc2)ccc1C(F)(F)F [Example 106, 4′-[(1-{[3-methyl-4-(trifluoromethyl)phenyl]carbamoyl}-D-prolyl)amino][1,1′-biphenyl]-4-carboxylic acid]
30 | 2.9 | CC(C)c1ccc(NC(=O)N2C[C@H]3C[C@H]3[C@@H]2C(=O)Nc2ccc(-c3ccc(C(=O)O)cc3)cc2)cc1 [Example 104, 4′-{[(1R,2R,5S)-3-{[4-(propan-2-yl)phenyl]carbamoyl}-3-azabicyclo[3.1.0]hexane-2-carbonyl]amino}[1,1′-biphenyl]-4-carboxylic acid]
